Source: PMC6768771 (Current cancer drug targets, 2019)

Legend:
Assay in all cases: Cell viability assay
Assay type in all cases: cell-based
NCI-H1563 cells = conditions: Homo sapiens, NCI-H1563, 48 h, read-out: EC50 at 48 h
A549 cells = conditions: Homo sapiens, A549, 48 h, read-out: EC50 at 48 h
NCI-H661 cells = conditions: Homo sapiens, NCI-H661, 48 h, read-out: EC50 at 48 h
NCI-H1299 cells = conditions: Homo sapiens, NCI-H1299, 48 h, read-out: EC50 at 48 h
NCI-H1573 cells = conditions: Homo sapiens, NCI-H1573, 48 h, read-out: EC50 at 48 h
NCI-H460 cells = conditions: Homo sapiens, NCI-H460, 48 h, read-out: EC50 at 48 h

EC50 (NCI-H1563 cells) [µM] | EC50 (A549 cells) [µM] | EC50 (NCI-H661 cells) [µM] | EC50 (NCI-H1299 cells) [µM] | EC50 (NCI-H1573 cells) [µM] | EC50 (NCI-H460 cells) [µM] | SMILES
80 | > 200 | > 200 | 72 | > 200 | 56 | CC(=O)O[C@@]12CO[C@@H]1C[C@H](O)[C@@]1(C)C(=O)[C@H](O)C3=C(C)[C@@H](OC(=O)[C@H](O)[C@@H](NC(=O)OC(C)(C)C)c4ccccc4)C[C@@](O)([C@@H](OC(=O)c4ccccc4)[C@H]21)C3(C)C [Docetaxel]
> 200 | > 200 | > 200 | > 200 | > 200 | > 200 | C#Cc1cccc(Nc2ncnc3cc(OCCOC)c(OCCOC)cc23)c1 [Erlotinib]
> 200 | > 200 | 11 | 60 | > 200 | 26 | CC(=O)O[C@H]1C(=O)[C@@]2(C)[C@H]([C@H](OC(=O)c3ccccc3)[C@]3(O)C[C@H](OC(=O)[C@H](O)[C@@H](NC(=O)c4ccccc4)c4ccccc4)C(C)=C1C3(C)C)[C@]1(OC(C)=O)CO[C@@H]1C[C@@H]2O [Paclitaxel]
